Patent US9532520B2, “Drought tolerant plants” (NUNHEMS B.V., priority 2009, dated 2017)

System: tomato seedlings (Solanum lycopersicum cv. Moneymaker)
Test: Root growth assay on ½MS media containing ABA
Format: in vivo
Conditions: wild type tomato; 0, 5, 10 or 40 μM ABA; root length seven days after transfer, relative to medium without ABA
Experimental: Seeds were sterilized as described above and sown in water containing […]. After radicle protrusion ten seeds of each line were placed on ½MS media containing either 0, 5, 10, or 40 μM ABA. The roots were measured and the plates were placed in vertical position and grown under conditions described above. Seven days after transfer the length of the root was measured again and root growth was calculated as a percentage of root growth compared to ½MS media without ABA (100%). Experiments were carried out three times and mean values plus SD are shown. Student's t-tests were performed to test for significance (p<0.05).

## CC1=CC(=O)CC(C)(C)[C@@]1(O)/C=C/C(C)=C\C(=O)O [ABA, abscisic acid]
  root growth after germination: reduced
